One assay relates to HCT116 WT cells. Put plainly: HCT116 WT cell proliferation / viability (CellTiter-Glo, 6 days). Format: cell-based. The conditions noted are these: Homo sapiens, HCT-116, 144 h, HCT116 WT cells, 6 days, CellTiter-Glo; read-out: HCT-116 WT IC50. The gist of the method:
(§1)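 CellTiter-Glo luminescence, 6-day exposure, RPMI 1640 + 10% FBS. Dosing: 1:3 series (8-9 pts, top 1 or 10 μM) or 1:2 series (22 pts, top 10 or 50 μM), DMSO control. IC50 = 50% of control via curve fit.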

The subject of the next assay is HCT116 MTAP null cells. Put plainly: HCT116 MTAP null cell proliferation / viability (CellTiter-Glo, 6 days). Format: cell-based. The conditions noted are these: for IC50: HCT116-MTAP null, 144 h, HCT116 MTAP null cells, 6 days, CellTiter-Glo, read-out: HCT-116 MTAP null IC50. The gist of the method:
as §1

Some results are limits rather than exact numbers.

As to `Nc1nc2ccc(C(=O)N(Cc3ccc(C(F)(F)F)cn3)Cc3ncccn3)cc2c2cnccc12` [Example 631, 5-amino-N-(2-pyrimidinylmethyl)-N-((5-(trifluoromethyl)-2-pyridinyl)methyl)benzo[c][2,6]naphthyridine-9-carboxamide], the IC50 with HCT116 WT cells was found to be 0.215 µM; in the assay on HCT116 MTAP null cells, 0.01 µM.

As for `CN(Cc1ccc(C(F)(F)F)cc1)C(=O)c1cc2c(cc1F)nc(N)c1cnn(C)c12` [Example 552, 4-amino-7-fluoro-N,1-dimethyl-N-(4-(trifluoromethyl)benzyl)-1H-pyrazolo[4,3-c]quinoline-8-carboxamide], the IC50 in the assay with HCT116 WT cells amounted to 1.88 µM; in the assay with HCT116 MTAP null cells, 0.025 µM.

As for `COc1ccc(CN(C(=O)c2ccc3nc(N)c4c(c3c2)COC4)C(C)C)nc1Cl` [Example 462, 4-amino-N-((6-chloro-5-methoxy-2-pyridinyl)methyl)-N-(2-propanyl)-1,3-dihydrofuro[3,4-c]quinoline-8-carboxamide], the IC50 with HCT116 WT cells amounted to 3.94 µM; in the assay with HCT116 MTAP null cells, 0.105 µM.

With `CC(C)N(Cc1ccc(C#N)cn1)C(=O)c1cc2c3c(c(N)nc2cc1F)COC3` [Example 477, 4-amino-N-((5-cyano-2-pyridinyl)methyl)-7-fluoro-N-(2-propanyl)-1,3-dihydrofuro[3,4-c]quinoline-8-carboxamide], the IC50 in the assay on HCT116 WT cells stood at 19.4 µM; in the assay on HCT116 MTAP null cells, 0.655 µM.

In the case of `C[C@H](c1ccc(C(F)(F)F)cn1)N(C(=O)c1ccc2nc(N)c3c(c2c1)CO[C@@H]3C)C1CC1` [Example 746, (3R)-4-amino-N-cyclopropyl-3-methyl-N-((1R)-1-(5-(trifluoromethyl)-2-pyridinyl)ethyl)-1,3-dihydrofuro[3,4-c]quinoline-8-carboxamide], the IC50 with HCT116 WT cells is 3.46 µM; with HCT116 MTAP null cells it was 0.034 µM.

For `C[C@@H](CF)N(Cc1ccc(C#N)cn1)C(=O)c1ccc2nc(N)c3c(c2c1)COC3` (single isomer, unassigned) [Example 578], the IC50 was 4.93 µM with HCT116 WT cells and 0.338 µM with HCT116 MTAP null cells. Also, the “potency of enantiomer relative to the other enantiomer, measured by IC50 in HCT116 MTAP null cell viability assay” value in the assay on HCT116 MTAP null cells (HCT116 MTAP null, comparison of the two SFC-separated enantiomers) is recorded as “less potent”.

Regarding `Nc1nc2cc(F)c(C(=O)N(Cc3ccc(C(F)(F)F)nn3)C3CCC3)cc2c2c1COC2` [Example 501, 4-amino-N-cyclobutyl-7-fluoro-N-((6-(trifluoromethyl)-3-pyridazinyl)methyl)-1,3-dihydrofuro[3,4-c]quinoline-8-carboxamide], the IC50 in the assay on HCT116 WT cells amounted to 1.2 µM; in the assay with HCT116 MTAP null cells, 0.046 µM.

In the case of `CCN(Cc1ccc(C(F)(F)F)cn1)C(=O)c1cc2c(cn1)nc(N)c1cnn(C)c12` [Example 549, 4-amino-N-ethyl-1-methyl-N-((5-(trifluoromethyl)-2-pyridinyl)methyl)-1H-pyrazolo[4,3-c][1,7]naphthyridine-8-carboxamide], the figures for the IC50 in the assay with HCT116 WT cells and in the assay with HCT116 MTAP null cells were 0.487 µM and 0.02 µM, respectively.

`C[C@H](c1ccc(C(F)(F)F)cc1)N(C)C(=O)c1cc2c3c(c(N)nc2cc1F)[C@@H](C)OC3` (single isomer, unassigned) [Example 860]: the concentration for half-maximal inhibition (IC50) with HCT116 WT cells turned out to be 0.849 µM; in the assay with HCT116 MTAP null cells, 0.017 µM.

With `C[C@H](c1ncccn1)N(Cc1ccc(C#N)c(Cl)n1)C(=O)c1ccc2nc(N)c3c(c2c1)COC3` [Example 679, 4-amino-N-((6-chloro-5-cyano-2-pyridinyl)methyl)-N-((1R)-1-(2-pyrimidinyl)ethyl)-1,3-dihydrofuro[3,4-c]quinoline-8-carboxamide], the IC50 in the assay on HCT116 WT cells was determined as 0.108 µM; with HCT116 MTAP null cells it was 0.005 µM.

With `N#Cc1ccc(CN(C(=O)c2ccc3nc(N)c4c(c3c2)COC4)C2CCCn3ncnc32)nc1` (racemic) [Example 448, 4-amino-N-((5-cyano-2-pyridinyl)methyl)-N-((8R)-5,6,7,8-tetrahydro[1,2,4]triazolo[1,5-a]pyridin-8-yl)-1,3-dihydrofuro[3,4-c]quinoline-8-carboxamide and 4-amino-N-((5-cyano-2-pyridinyl)methyl)-N-((8S)-5,6,7,8-tetrahydro[1,2,4]triazolo[1,5-a]pyridin-8-yl)-1,3-dihydrofuro[3,4-c]quinoline-8-carboxamide], the figures for the IC50 in the assay on HCT116 WT cells and in the assay on HCT116 MTAP null cells were 2.1 µM and 0.124 µM, respectively.

For `CN(Cc1ccc(-c2ccc(C(F)(F)F)cc2)nn1)C(=O)c1ccc2nc(N)c3cnn(C)c3c2c1` [Example 530, 4-amino-N,1-dimethyl-N-((6-(4-(trifluoromethyl)phenyl)-3-pyridazinyl)methyl)-1H-pyrazolo[4,3-c]quinoline-8-carboxamide], the IC50 was determined as 6.56 µM in the assay with HCT116 WT cells and 0.165 µM in the assay on HCT116 MTAP null cells.

Consider `Nc1nc2cnc(C(=O)N(Cc3ccc(C(F)(F)F)nn3)CC3CC3)cc2c2c1COC2` [Example 688, 4-amino-N-(cyclopropylmethyl)-N-((6-(trifluoromethyl)-3-pyridazinyl)methyl)-1,3-dihydrofuro[3,4-c][1,7]naphthyridine-8-carboxamide], for which the IC50 with HCT116 WT cells was found to be 3.45 µM; in the assay on HCT116 MTAP null cells it was 0.081 µM.

With `CC(C)N(C(=O)c1cc2c3c(c(N)nc2cn1)COC3)[C@@H](C)c1ccc(C(F)(F)F)cn1` (single isomer, unassigned) [Example 847], the IC50 with HCT116 WT cells stood at 36.1 µM; in the assay with HCT116 MTAP null cells it was 1.86 µM.

On to `CN(Cc1ccc(C(F)(F)F)nn1)C(=O)c1ccc2nc(N)c3c(c2c1)COC3` [Example 352, 4-amino-N-methyl-N-((6-(trifluoromethyl)-3-pyridazinyl)methyl)-1,3-dihydrofuro[3,4-c]quinoline-8-carboxamide], for which the IC50 in the assay with HCT116 WT cells is greater than 10 µM; in the assay with HCT116 MTAP null cells it was 0.872 µM.

In the case of `Cn1ncc2c(N)nc3cc(Cl)c(C(=O)N(Cc4ccc(C(F)(F)F)nn4)C4CC4)cc3c21` [Example 796, 4-amino-7-chloro-N-cyclopropyl-1-methyl-N-((6-(trifluoromethyl)-3-pyridazinyl)methyl)-1H-pyrazolo[4,3-c]quinoline-8-carboxamide], the results for the half-maximal inhibitory concentration (IC50) with HCT116 WT cells and with HCT116 MTAP null cells were 1.67 µM and 0.034 µM, respectively.

For `CC(C)N(Cc1ccc(C2CC2)cn1)C(=O)c1cc2c3c(c(N)nc2cn1)[C@@H](C)OC3` [Example 406, (3R)-4-amino-N-((5-cyclopropyl-2-pyridinyl)methyl)-3-methyl-N-(2-propanyl)-1,3-dihydrofuro[3,4-c][1,7]naphthyridine-8-carboxamide], the IC50 in the assay on HCT116 WT cells amounted to 4.13 µM; in the assay on HCT116 MTAP null cells, 0.097 µM.

Take `CN(Cc1ccc(C(F)(F)F)cn1)C(=O)c1ccc2nc(N)c3cnn(C)c3c2c1` [Example 567, 4-amino-N,1-dimethyl-N-((5-(trifluoromethyl)-2-pyridinyl)methyl)-1H-pyrazolo[4,3-c]quinoline-8-carboxamide]: the IC50 in the assay with HCT116 WT cells was 6.79 µM; in the assay on HCT116 MTAP null cells, 0.09 µM.

On to `CCN(Cc1ccc(C(F)(F)F)cn1)C(=O)c1ccc2nc(N)c3c(C)noc3c2c1` [Example 547, 4-amino-N-ethyl-3-methyl-N-((5-(trifluoromethyl)-2-pyridinyl)methyl)[1,2]oxazolo[4,5-c]quinoline-8-carboxamide], for which the IC50 in the assay with HCT116 WT cells was 24.5 µM; with HCT116 MTAP null cells it was 0.668 µM.

In the case of `Nc1nc2cc(Cl)c(C(=O)N(Cc3ccc(C(F)(F)F)cn3)C3CC3)cc2c2c1COC2` [Example 656, 4-amino-7-chloro-N-cyclopropyl-N-((5-(trifluoromethyl)-2-pyridinyl)methyl)-1,3-dihydrofuro[3,4-c]quinoline-8-carboxamide], the IC50 is 1.26 µM with HCT116 WT cells and 0.019 µM with HCT116 MTAP null cells.

Usually IC50 stands for the concentration at which inhibition is half-maximal.

The values above are taken from US20240101570A1 (AMGEN INC., priority 2020, published 2024).
